EPA's ToxRefDB 2

What was measured:
rat [1] = conditions: Combined chronic toxicity/carcinogenicity, fischer, Oral, [Not Specified], dose end: 123 week, group: systemic
dog [2] = conditions: Chronic toxicity; beagle; Oral; Capsule; dose end: 52 week; group: systemic; systemic / in life observation / clinical signs / ataxia + systemic / in life observation / clinical signs / squinting + systemic / in life …
mouse [3] = conditions: Carcinogenicity, cd1, Oral, Feed, dose end: 81 week, group: systemic
rabbit = conditions: Prenatal developmental toxicity study, new zealand white, Oral, Gavage/Intubation, dose end: 19 GD
mouse [4] = conditions: Sub-acute repeat dose toxicity, cd1, Oral, Feed, dose end: 5 week, group: systemic
rat [5] = conditions: Subchronic oral toxicity in rodents, sprague dawley, Feed, dose end: 13 week, group: systemic
rat [6] = conditions: Combined chronic toxicity/carcinogenicity, sprague dawley, Oral, Feed, dose end: 105 week, group: systemic
rat [7] = conditions: Chronic toxicity, Oral, Diet, dose end: 53 week, group: systemic
dog [8] = conditions: Subchronic oral toxicity in nonrodent, beagle, Gavage/Intubation, dose end: 14 week, group: systemic
dog [9] = conditions: Chronic toxicity; beagle; Oral; Gavage/Intubation; dose end: 53 week; group: systemic; systemic / in life observation / clinical signs / stiffness + systemic / in life observation / clinical signs / tremors + systemic / …
rat [10] = conditions: Multigenerational reproductive toxicity study, Sprague-Dawley, Oral, Feed, dose end: 2 generation
rat [11] = conditions: Prenatal developmental toxicity study, sprague dawley, Oral, Gavage/Intubation, dose end: 18 GD
rat [12] = conditions: Prenatal developmental toxicity study, wistar, Oral, Gavage/Intubation, dose end: 15 GD
rat [13] = conditions: Combined chronic toxicity/carcinogenicity, sprague dawley, Oral, Feed, dose end: 24 month, group: systemic
rat [14] = conditions: Prenatal developmental toxicity study, sprague dawley, Oral, Gavage/Intubation, dose end: 15 GD
rat [15] = conditions: Multigenerational reproductive toxicity study, sprague dawley, Oral, Feed, dose end: 2 generation
dog [16] = conditions: Chronic toxicity; beagle; Oral; Feed; dose end: 52 week; group: systemic; systemic / organ weight / kidney / absolute + systemic / organ weight / kidney / relative to body weight + systemic / pathology microscopic…
rat [17] = conditions: Subchronic oral toxicity in rodents, sprague dawley, Feed, dose end: 90 day, group: systemic
mouse [18] = conditions: Subchronic oral toxicity in rodents, cd1, Feed, dose end: 13 week, group: systemic
[19] = systemic / organ weight / liver / absolute + systemic / organ weight / liver / relative to body weight + systemic / urinalysis / specific …
[20] = systemic / organ weight / liver / relative to body weight + systemic / pathology microscopic / liver / fatty change
[21] = systemic / organ weight / liver / relative to body weight + systemic / pathology microscopic / liver / fatty change + systemic / pathology …
[22] = group: developmental, developmental / developmental malformation / bone / fused + developmental / developmental malformation / bone / thoracic hemivertebra
[23] = group: maternal, systemic / in life observation / body weight / body weight gain + systemic / in life observation / clinical signs / convulsions + systemic…
[24] = systemic / clinical chemistry / alanine aminotransferase (alt/sgpt) / alanine aminotransferase (alt/sgpt) + systemic / clinical chemistry / …
[25] = systemic / clinical chemistry / triglycerides / triglycerides
[26] = systemic / in life observation / body weight / body weight + systemic / in life observation / clinical signs / emaciation + systemic / in …
[27] = systemic / in life observation / body weight / body weight + systemic / in life observation / body weight / body weight gain + systemic / in…
[28] = systemic / in life observation / clinical signs / locomotion + systemic / in life observation / clinical signs / motor activity + systemic…
[29] = systemic / pathology microscopic / brain / degeneration + systemic / pathology microscopic / skeletal muscle / atrophy + systemic / in life …
[30] = systemic / pathology microscopic / brain / degeneration + systemic / pathology microscopic / skeletal muscle / atrophy + systemic / …
[31] = group: maternal, systemic / in life observation / body weight / body weight gain
[32] = group: offspring, developmental / developmental malformation / limb / [other] + systemic / in life observation / clinical signs / tremors
[33] = group: parental, systemic / pathology microscopic / brain / degeneration + systemic / pathology microscopic / spinal cord / degeneration + systemic / in life…
[34] = group: reproductive, reproductive / reproductive performance / fertility / fertility
[35] = group: developmental, developmental / developmental malformation / bone / full supernumerary + developmental / developmental malformation / bone / incomplete …
[36] = group: developmental, systemic / in life observation / body weight / fetal weight
[37] = group: maternal, systemic / in life observation / body weight / body weight gain + reproductive / reproductive performance / reproductive performance other…
[38] = systemic / organ weight / adrenal gland / nos + systemic / organ weight / pituitary gland / nos + systemic / in life observation / clinical …
[39] = group: developmental, developmental / developmental malformation / bone / full supernumerary + developmental / developmental malformation / general / crown-rump …
[40] = group: maternal, systemic / in life observation / body weight / body weight gain + systemic / in life observation / clinical signs / body surface staining + …
[41] = group: parental, systemic / organ weight / liver / absolute + systemic / organ weight / liver / relative to body weight + systemic / pathology microscopic / …
[42] = group: reproductive, reproductive / reproductive performance / gestational length / gestational length
[43] = systemic / clinical chemistry / calcium / calcium

## C=CCC1=C(C)C(OC(=O)C2C(C=C(C)C)C2(C)C)CC1=O (configuration not stated) [Allethrin]
Rat [1]; systemic / organ weight / liver / absolute + systemic / organ weight / liver / relative to body weight
  LOAEL: 24.5 mg/kg/day
Rat [1]; [19]
  LEL: 5.9 mg/kg/day
  NEL: < 5.9 mg/kg/day
  NOAEL: 5.9 mg/kg/day
Dog [2]
  LEL: 20 mg/kg/day
  LOAEL: 20 mg/kg/day
  NEL: 6 mg/kg/day
  NOAEL: 6 mg/kg/day
Mouse [3]; [20]
  NEL: 71.6 mg/kg/day
  NOAEL: 71.6 mg/kg/day
Mouse [3]; [21]
  LEL: 350 mg/kg/day
  LOAEL: 350 mg/kg/day
rabbit; [22]
  LEL: 350 mg/kg/day
  LOAEL: 350 mg/kg/day
  NEL: 100 mg/kg/day
  NOAEL: 100 mg/kg/day
rabbit; [23]
  LEL: 350 mg/kg/day
  LOAEL: 350 mg/kg/day
  NEL: 100 mg/kg/day
  NOAEL: 100 mg/kg/day
Mouse [4]; [24]
  LOAEL: 1520 mg/kg/day
  NOAEL: 438 mg/kg/day
Mouse [4]; [25]
  LEL: 14 mg/kg/day
  NEL: < 14 mg/kg/day

## CC[C@H](C)[C@H]1O[C@]2(C=C[C@@H]1C)C[C@@H]1C[C@@H](C/C=C(\C)[C@@H](O[C@H]3C[C@H](OC)[C@@H](O[C@H]4C[C@H](OC)[C@@H](NC)[C@H](C)O4)[C@H](C)O3)[C@@H](C)/C=C/C=C3\CO[C@@H]4[C@H](O)C(C)=C[C@@H](C(=O)O1)[C@]34O)O2.O=C(O)c1ccccc1 [Emamectin benzoate]
Rat [5]; [26]
  LOAEL: 6.7 mg/kg/day
  NOAEL: 2.5 mg/kg/day
Rat [5]; systemic / pathology microscopic / eye / vacuolization
  LEL: 2.5 mg/kg/day
Rat [5]; systemic / pathology microscopic / eye / vacuolization + systemic / in life observation / body weight / body weight + systemic / in life …
  NEL: 0.5 mg/kg/day
Rat [6]; systemic / clinical chemistry / triglycerides / triglycerides + systemic / in life observation / body weight / body weight + systemic / …
  NEL: 0.25 mg/kg/day
Rat [6]; [27]
  LOAEL: 2.51 mg/kg/day
  NOAEL: 1.01 mg/kg/day
Rat [6]; systemic / pathology microscopic / skin / fibroma + systemic / pathology gross / skin / nodule(s) + systemic / clinical chemistry / …
  LEL: 1.01 mg/kg/day
Rat [7]; systemic / in life observation / body weight / body weight + systemic / in life observation / clinical signs / fur (altered appearance) + …
  NEL: 1 mg/kg/day
Rat [7]; [28]
  LEL: 2.5 mg/kg/day
  LOAEL: 2.5 mg/kg/day
  NOAEL: 1 mg/kg/day
Dog [8]; [29]
  NEL: 0.25 mg/kg/day
  NOAEL: 0.25 mg/kg/day
Dog [8]; [30]
  LEL: 0.5 mg/kg/day
  LOAEL: 0.5 mg/kg/day
Dog [9]
  LEL: 0.5 mg/kg/day
  LOAEL: 0.5 mg/kg/day
  NEL: 0.25 mg/kg/day
  NOAEL: 0.25 mg/kg/day
Rat [10]; [31]
  LEL: 1.8 mg/kg/day
  LOAEL: 1.8 mg/kg/day
  NEL: 0.6 mg/kg/day
  NOAEL: 0.6 mg/kg/day
Rat [10]; [32]
  LOAEL: 1.8 mg/kg/day
  NEL: 0.6 mg/kg/day
  NOAEL: 0.6 mg/kg/day
Rat [10]; group: offspring, developmental / developmental malformation / limb / [other] + systemic / in life observation / clinical signs / tremors + systemic / in life…
  LEL: 1.8 mg/kg/day
Rat [10]; group: parental, systemic / pathology microscopic / brain / degeneration + systemic / pathology microscopic / spinal cord / degeneration
  LOAEL: 3.6 mg/kg/day
Rat [10]; [33]
  LEL: 3.6 mg/kg/day
  NEL: 1.8 mg/kg/day
  NOAEL: 1.8 mg/kg/day
Rat [10]; [34]
  LEL: 3.6 mg/kg/day
  LOAEL: 3.6 mg/kg/day
  NEL: 1.8 mg/kg/day
  NOAEL: 1.8 mg/kg/day
Rat [11]; [35]
  LEL: 8 mg/kg/day
  LOAEL: 8 mg/kg/day
  NEL: 4 mg/kg/day
  NOAEL: 4 mg/kg/day
Rat [11]; [31]
  LEL: 4 mg/kg/day
  LOAEL: 4 mg/kg/day
Rat [11]; [23]
  NEL: 2 mg/kg/day
  NOAEL: 2 mg/kg/day

## FC(F)C(F)(F)OCC(Cn1cncn1)c1ccc(Cl)cc1Cl (configuration not stated) [Tetraconazole]
Rat [12]; [36]
  LEL: 100 mg/kg/day
  LOAEL: 100 mg/kg/day
  NEL: 30 mg/kg/day
  NOAEL: 30 mg/kg/day
Rat [12]; [31]
  LOAEL: 100 mg/kg/day
Rat [12]; [37]
  LEL: 100 mg/kg/day
  NEL: 30 mg/kg/day
  NOAEL: 30 mg/kg/day
Rat [13]; systemic / clinical chemistry / alanine aminotransferase (alt/sgpt) / alanine aminotransferase (alt/sgpt)
  LEL: 3.4 mg/kg/day
Rat [13]; [38]
  LOAEL: 27.7 mg/kg/day
  NEL: 0.4 mg/kg/day
  NOAEL: 3.4 mg/kg/day
Rat [14]; [39]
  LEL: 100 mg/kg/day
  LOAEL: 100 mg/kg/day
  NEL: 22.5 mg/kg/day
  NOAEL: 22.5 mg/kg/day
Rat [14]; [40]
  LEL: 22.5 mg/kg/day
  LOAEL: > 100 mg/kg/day
  NEL: 5 mg/kg/day
  NOAEL: ≥ 100 mg/kg/day
Rat [15]; group: offspring, systemic / in life observation / body weight / offspring (pup) weight + systemic / organ weight / liver / relative to body weight
  LOAEL: 35.5 mg/kg/day
Rat [15]; group: offspring, systemic / in life observation / body weight / offspring (pup) weight + systemic / organ weight / liver / relative to body weight + systemic…
  NOAEL: 4.9 mg/kg/day
Rat [15]; group: offspring, systemic / organ weight / liver / relative to body weight
  LEL: 5.9 mg/kg/day
Rat [15]; group: offspring, systemic / organ weight / liver / relative to body weight + systemic / in life observation / body weight / offspring (pup) weight + systemic…
  NEL: 0.8 mg/kg/day
Rat [15]; [41]
  LOAEL: 35.5 mg/kg/day
  NOAEL: 4.9 mg/kg/day
Rat [15]; group: parental, systemic / organ weight / liver / relative to body weight
  LEL: 6 mg/kg/day
Rat [15]; group: parental, systemic / organ weight / liver / relative to body weight + systemic / in life observation / body weight / body weight gain + systemic / in …
  NEL: 0.8 mg/kg/day
Rat [15]; [42]
  LEL: 5.9 mg/kg/day
  LOAEL: 5.9 mg/kg/day
  NEL: 0.8 mg/kg/day
  NOAEL: 0.8 mg/kg/day
Dog [16]
  LEL: 2.95 mg/kg/day
  LOAEL: 2.95 mg/kg/day
  NEL: 0.73 mg/kg/day
  NOAEL: 0.73 mg/kg/day
Rat [17]; [43]
  LEL: 0.7 mg/kg/day
  NEL: < 0.7 mg/kg/day
Rat [17]; systemic / clinical chemistry / calcium / calcium + systemic / in life observation / body weight / body weight gain + systemic / organ …
  NOAEL: 4.1 mg/kg/day
Rat [17]; systemic / in life observation / body weight / body weight gain + systemic / organ weight / liver / relative to body weight + systemic / …
  LOAEL: 23.9 mg/kg/day
Mouse [18]; [24]
  LOAEL: 20 mg/kg/day
  NOAEL: 4 mg/kg/day
Mouse [18]; systemic / pathology microscopic / liver / hypertrophy + systemic / pathology microscopic / liver / degeneration
  LEL: 16 mg/kg/day
Mouse [18]; systemic / pathology microscopic / liver / hypertrophy + systemic / pathology microscopic / liver / degeneration + systemic / clinical …
  NEL: 4 mg/kg/day
